Experimental data: ChEMBL document CHEMBL1139815, “Synthesis and characterization of a pegylated derivative of 3-(1,2,3,6-tetrahydro-pyridin-4yl)-1H-indole (IDT199): a high affinity SERT ligand for conjugation to quantum dots” (Bioorg Med Chem Lett, 2007)

Biological target: Sodium-dependent serotonin transporter (Homo sapiens, UniProt P31645)
Test: Displacement of [3H]serotonin from human SERT expressed in HeLa cells
Type: cell-based

Sequence of Sodium-dependent serotonin transporter (P31645 whole entry): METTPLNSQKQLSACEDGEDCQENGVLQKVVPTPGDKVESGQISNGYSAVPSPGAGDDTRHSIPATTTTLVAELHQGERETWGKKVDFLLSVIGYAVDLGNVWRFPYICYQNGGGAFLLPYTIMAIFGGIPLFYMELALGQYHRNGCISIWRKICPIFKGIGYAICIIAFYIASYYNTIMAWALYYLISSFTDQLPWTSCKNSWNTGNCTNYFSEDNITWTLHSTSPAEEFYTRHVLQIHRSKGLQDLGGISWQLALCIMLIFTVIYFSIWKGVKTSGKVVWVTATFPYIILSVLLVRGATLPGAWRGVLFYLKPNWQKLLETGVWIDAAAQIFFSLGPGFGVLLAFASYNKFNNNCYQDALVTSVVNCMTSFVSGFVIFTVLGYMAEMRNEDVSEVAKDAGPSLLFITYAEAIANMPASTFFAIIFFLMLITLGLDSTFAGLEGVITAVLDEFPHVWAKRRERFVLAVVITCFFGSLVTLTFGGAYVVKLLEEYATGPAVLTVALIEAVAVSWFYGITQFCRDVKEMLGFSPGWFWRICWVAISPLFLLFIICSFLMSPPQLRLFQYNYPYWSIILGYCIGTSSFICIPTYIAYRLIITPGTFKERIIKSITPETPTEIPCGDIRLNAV

Question: How did the IC50 turn out when `NCCCCCCCCCCCN1CCC(c2c[nH]c3ccccc23)CC1` was run?
Answer: 0.025 µM
